Data taken from patent US12617783B2, “Heterocyclic GLP-1R agonists” (BIOMEA FUSION, INC., priority 2024, dated 2026).

Target: T1, human GLP-1R (Homo sapiens, UniProt P43220)
T1 construct: host or cells: HEK293
Assay: GLP-1R cAMP assay (Example B1a, HTRF, 30 min at room temperature)
Format: cell-based
Details: cAMP accumulation in HEK293 expressing human GLP-1R, no BETP, 30 min room temperature (Method B1a, compounds ID 1-609), Table 1; read-out: EC50
Procedure: Assay was carried out with HEK293 expressing human GLP-1R using HTRF assay, developed by Wuxi Apptec. The method is a competitive assay between native cAMP produced by the cells and exogenous cAMP labeled with a proprietary dye d2. The tracer binding is visualized by a mAb anti-cAMP labeled with Cryptate. The signal (i.e. energy transfer) is inversely proportional to the concentration of CAMP in either standard or experimental sample. Compounds were tested in the absence of BETP. Ten microliter of cell suspension in assay buffer (5 mM HEPES, 500 μM IBMX, 0.1% BSA) were added to each well (1,000 cells per well) in a low volume 384-well plate for the assay. Serially diluted compounds were added in 100 nL volume to duplicate wells, by Labcyte Echo. GLP-1 (7-37) was used as positive control. Assay plate was incubated for 30 minutes at room temperature. Stock of cAMP Detection Solution was prepared by mixing 38 parts of cAMP lysis buffer, 1 part of cAMP-D2, 1 part of anti-cAMP cryptate reagent (Cisbio #62AM4PEJ). Ten microliter of the cAMP Detection Solution was added to each well, and the assay plate was incubated for 1 hour at room temperature in the dark. Plates were read on Envision plate reader. The data were analyzed by ScreenUltra in Dotmatics, with % activation expressed using following formula: (Well data−negative control)/(postive control−negative control)*100. Dose response curves were plotted and EC50 values calculated by non-linear regression using 4-parameter fit.

T1 sequence (P43220 24-463): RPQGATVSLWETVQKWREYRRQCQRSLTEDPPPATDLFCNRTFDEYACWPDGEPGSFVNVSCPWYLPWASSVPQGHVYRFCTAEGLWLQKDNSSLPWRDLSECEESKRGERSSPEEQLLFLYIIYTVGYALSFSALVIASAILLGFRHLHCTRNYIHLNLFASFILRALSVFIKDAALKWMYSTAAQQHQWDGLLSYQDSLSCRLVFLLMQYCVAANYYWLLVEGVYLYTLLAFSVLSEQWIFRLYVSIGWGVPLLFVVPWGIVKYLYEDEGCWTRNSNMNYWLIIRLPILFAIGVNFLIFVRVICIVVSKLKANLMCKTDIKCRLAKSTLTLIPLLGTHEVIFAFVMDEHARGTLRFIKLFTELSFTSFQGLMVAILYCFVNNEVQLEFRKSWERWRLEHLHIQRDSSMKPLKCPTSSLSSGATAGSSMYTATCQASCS

SMILES | EC50 [nM]
Cc1cc(-n2nc3c(c2-n2ccn(-c4ccc5c(cnn5C)c4F)c2=O)[C@H]2CC[C@@H](C3)N2C(=O)c2cc3cc([C@@H]4CCOC5(CC5)C4)ccc3n2[C@@]2(c3noc(=O)[nH]3)C[C@@H]2C)cc(C)c1F [Compound 414, 3-((1S,2S)-1-(2-((4R,7S)-3-(3-(4-fluoro-1-methyl-1H-indazol-5-yl)-2-oxo-2,3-dihydro-1H-imidazol-1-yl)-2-(4-fluoro-3,5-dimethylphenyl)-2,4,5,6,7,8-hexahydro-4,7-epiminocyclohepta [c]pyrazole-9-carbonyl)-5-((R)-4-oxaspiro[2.5]octan-7-yl)-1H-indol-1-yl)-2-methylcyclopropyl)-1,2,4-oxadiazol-5 (4H)-one] | ≥ 10000
CC[C@H]1C[C@]1(c1noc(=O)[nH]1)n1c(C(=O)N2[C@@H]3CC[C@H]2c2c(nn(-c4cc(C)c(F)c(C)c4)c2-n2ccn(-c4ccc5c(cnn5C)c4F)c2=O)C3)cc2cc([C@H]3CCOC(C)(C)C3)ccc21 [Compound 434, 3-[(1S,2S)-1-[5-[(4S)-2,2-dimethyltetrahydropyran-4-yl]-2-[(1S,8R)-4-(4-fluoro-3,5-dimethyl-phenyl)-3-[3-(4-fluoro-1-methyl-indazol-5-yl)-2-oxo-imidazol-1-yl]-4,5,11-triazatricyclo[6.2.1.02,6]undeca-2,5-diene-11-carbonyl]indol-1-yl]-2-ethyl-cyclopropyl]-4H-1,2,4-oxadiazol-5-one] | 175
Cc1cc(-n2nc3c(c2-n2ccn(-c4ccc5c(cnn5C)c4F)c2=O)[C@@H]2COC[C@H](C3)N2C(=O)c2cc3cc([C@H]4CCOC(C)(C)C4)ncc3n2[C@@]2(c3noc(=O)[nH]3)C[C@@H]2C)cc(C)c1F [Compound 225, 3-((1S,2S)-1-(5-((S)-2,2-dimethyltetrahydro-2H-pyran-4-yl)-2-((4R,8S)-3-(3-(4-fluoro-1-methyl-1H-indazol-5-yl)-2-oxo-2,3-dihydro-1H-imidazol-1-yl)-2-(4-fluoro-3,5-dimethylphenyl)-2,4,5,7,8,9-hexahydro-4,8-epiminooxocino [5,4-c]pyrazole-10-carbonyl)-1H-pyrrolo[2,3-c]pyridin-1-yl)-2-methylcyclopropyl)-1,2,4-oxadiazol-5 (4H)-one] | 34.1
Cc1cc(-n2nc3c(c2-n2ccn(-c4ccc5c(cnn5C)c4F)c2=O)[C@@H]2CCC[C@H](C3)N2S(=O)(=O)c2cc3cc([C@@H]4CCOC5(CC5)C4)ccc3n2[C@]2(c3noc(=O)[nH]3)C[C@@H]2C)cc(C)c1F [Compound 603, 3-[(1R,2S)-1-[2-[[(1S,8R)-4-(4-fluoro-3,5-dimethyl-phenyl)-3-[3-(4-fluoro-1-methyl-indazol-5-yl)-2-oxo-imidazol-1-yl]-4,5,12-triazatricyclo[6.3.1.02,6]dodeca-2,5-dien-12-yl]sulfonyl]-5-[(7R)-4-oxaspiro[2.5]octan-7-yl]indol-1-yl]-2-methyl-cyclopropyl]-4H-1,2,4-oxadiazol-5-one] | ≥ 10000
Cc1cc(-n2nc3c(c2-n2ccn(-c4ccc5c(cnn5C)c4F)c2=O)[C@@H]2CC[C@H](C3)N2C(=O)c2cc3cc(N4CC(C)(C)C=CC4=O)ccc3n2[C@@]2(c3noc(=O)[nH]3)C[C@@H]2C)cc(C)c1F [Compound 510] | ≥ 10000
Cc1cc(-n2nc3c(c2-n2ccn(-c4cc(F)c5c(cnn5C)c4F)c2=O)[C@@H]2COC[C@H](C3)N2C(=O)c2cc3cc([C@H]4CCOC(C)(C)C4)ccc3n2[C@@]2(c3noc(=O)[nH]3)C[C@@H]2C)cc(C)c1F [Compound 224, 3-[(1S,2S)-1-[2-[(1R,8S)-3-[3-(4,7-difluoro-1-methyl-indazol-5-yl)-2-oxo-imidazol-1-yl]-4-(4-fluoro-3,5-dimethyl-phenyl)-10-oxa-4,5,12-triazatricyclo[6.3.1.02,6]dodeca-2,5-diene-12-carbonyl]-5-[(4S)-2,2-dimethyltetrahydropyran-4-yl]indol-1-yl]-2-methyl-cyclopropyl]-4H-1,2,4-oxadiazol-5-one] | 212
Cc1cc(-n2nc3c(c2-n2ccn(-c4ccc5c(cnn5C)c4F)c2=O)[C@@H]2COC[C@H](C3)N2C(=O)c2cc3cc([C@@H]4CCOC5(CC5)C4)ccc3n2[C@@]2(c3noc(=O)[nH]3)C[C@@H]2C)cc(C)c1F [Compound 227, 3-((1S,2S)-1-(2-((4R,8S)-3-(3-(4-fluoro-1-methyl-1H-indazol-5-yl)-2-oxo-2,3-dihydro-1H-imidazol-1-yl)-2-(4-fluoro-3,5-dimethylphenyl)-2,4,5,7,8,9-hexahydro-4,8-epiminooxocino [5,4-c]pyrazole-10-carbonyl)-5-((R)-4-oxaspiro[2.5]octan-7-yl)-1H-indol-1-yl)-2-methylcyclopropyl)-1,2,4-oxadiazol-5 (4H)-one] | 585
Cc1cc(-n2nc3c(c2-n2ccn(-c4ccc5c(cnn5C)c4F)c2=O)[C@@H]2CC[C@H](C3)N2C(=O)c2cc3cc([C@@H]4CCOC4(C)C)ccc3n2[C@@]2(c3noc(=O)[nH]3)C[C@@H]2C)cc(C)c1F [Compound 420, 3-[(1S,2S)-1-[5-[(3S)-2,2-dimethyltetrahydrofuran-3-yl]-2-[(1S,8R)-4-(4-fluoro-3,5-dimethyl-phenyl)-3-[3-(4-fluoro-1-methyl-indazol-5-yl)-2-oxo-imidazol-1-yl]-4,5,11-triazatricyclo[6.2.1.02,6]undeca-2,5-diene-11-carbonyl]indol-1-yl]-2-methyl-cyclopropyl]-4H-1,2,4-oxadiazol-5-one] | 650
Cc1cc(-n2nc3c(c2-n2ccn(-c4ccc5c(cnn5C)c4F)c2=O)[C@@H]2CC[C@H](C3)N2C(=O)c2cc3cc([C@@H]4CCOC(C)(C)C4)cnc3n2[C@@]2(c3noc(=O)[nH]3)C[C@@H]2C)cc(C)c1F [Compound 312, 3-((1S,2S)-1-(5-((R)-2,2-dimethyltetrahydro-2H-pyran-4-yl)-2-((4S,7R)-3-(3-(4-fluoro-1-methyl-1H-indazol-5-yl)-2-oxo-2,3-dihydro-1H-imidazol-1-yl)-2-(4-fluoro-3,5-dimethylphenyl)-2,4,5,6,7,8-hexahydro-4,7-epiminocyclohepta [c]pyrazole-9-carbonyl)-1H-pyrrolo[2,3-b]pyridin-1-yl)-2-methylcyclopropyl)-1,2,4-oxadiazol-5(4H)-one] | 1340
Cc1cc(-n2nc3c(c2-n2ccn(-c4ccc5c(cnn5C)c4F)c2=O)[C@H]2CCC[C@@H](C3)N2C(=O)c2cc3cc([C@H]4CCOC(C)(C)C4)ccc3n2[C@@]2(c3noc(=O)[nH]3)C[C@@H]2C)cc(C)c1F [Compound 430, 3-((1S,2S)-1-(5-((S)-2,2-dimethyltetrahydro-2H-pyran-4-yl)-2-((4R,8S)-3-(3-(4-fluoro-1-methyl-1H-indazol-5-yl)-2-oxo-2,3-dihydro-1H-imidazol-1-yl)-2-(4-fluoro-3,5-dimethylphenyl)-4,5,6,7,8,9-hexahydro-2H-4,8-epiminocycloocta [c]pyrazole-10-carbonyl)-1H-indol-1-yl)-2-methylcyclopropyl)-1,2,4-oxadiazol-5 (4H)-one] | ≥ 10000
Cc1cc(-n2nc3c(c2-n2ccn(-c4ccc5c(cnn5C)c4F)c2=O)[C@@H]2CC[C@H](C3)N2C(=O)c2cc3cc([C@H]4CCOC5(CC5)C4)ccc3n2[C@@]2(c3noc(=O)[nH]3)C[C@H]2C)cc(C)c1F [Compound 542, 3-((1S,2R)-1-(2-((4S,7R)-3-(3-(4-fluoro-1-methyl-1H-indazol-5-yl)-2-oxo-2,3-dihydro-1H-imidazol-1-yl)-2-(4-fluoro-3,5-dimethylphenyl)-2,4,5,6,7,8-hexahydro-4,7-epiminocyclohepta [c]pyrazole-9-carbonyl)-5-((S)-4-oxaspiro[2.5]octan-7-yl)-1H-indol-1-yl)-2-methylcyclopropyl)-1,2,4-oxadiazol-5 (4H)-one] | 1620
Cc1cc(-n2nc3c(c2-n2ccn(-c4ccc5c(cnn5C)c4F)c2=O)[C@@H]2CC[C@H](C3)N2C(=O)c2cc3cc([C@@H]4CCOC(C)(C)C4)ncc3n2[C@@]2(c3noc(=O)[nH]3)C[C@@H]2C)cc(C)c1F [Compound 212, 3-((1S,2S)-1-(5-((R)-2,2-dimethyltetrahydro-2H-pyran-4-yl)-2-((4S,7R)-3-(3-(4-fluoro-1-methyl-1H-indazol-5-yl)-2-oxo-2,3-dihydro-1H-imidazol-1-yl)-2-(4-fluoro-3,5-dimethylphenyl)-2,4,5,6,7,8-hexahydro-4,7-epiminocyclohepta [c]pyrazole-9-carbonyl)-1H-pyrrolo[2,3-c]pyridin-1-yl)-2-methylcyclopropyl)-1,2,4-oxadiazol-5 (4H)-one] | 697
Cc1cc(-n2nc3c(c2-n2ccn(-c4ccc5c(cnn5C)c4F)c2=O)[C@@H]2CC[C@H](C3)N2C(=O)c2cc3nc([C@@H]4CCOC(C)(C)C4)ccc3n2[C@@]2(c3noc(=O)[nH]3)C[C@@H]2C)cc(C)c1F [Compound 218, 3-[(1S,2S)-1-[5-[(4R)-2,2-dimethyltetrahydropyran-4-yl]-2-[(1S,8R)-4-(4-fluoro-3,5-dimethyl-phenyl)-3-[3-(4-fluoro-1-methyl-indazol-5-yl)-2-oxo-imidazol-1-yl]-4,5,11-triazatricyclo[6.2.1.02,6]undeca-2,5-diene-11-carbonyl]pyrrolo[3,2-b]pyridin-1-yl]-2-methyl-cyclopropyl]-4H-1,2,4-oxadiazol-5-one] | > 10000

Same assay, conditions: text to Table 1d, bridge atoms configured out of the plane or toward the reader

SMILES | potency
Cc1cc(-n2nc3c(c2-n2ccn(-c4ccc5c(cnn5C)c4F)c2=O)[C@H]2CCC[C@@H](C3)N2C(=O)c2cc3cc([C@H]4CCOC(C)(C)C4)ccc3n2[C@@]2(c3noc(=O)[nH]3)C[C@@H]2C)cc(C)c1F [Compound 430, 3-((1S,2S)-1-(5-((S)-2,2-dimethyltetrahydro-2H-pyran-4-yl)-2-((4R,8S)-3-(3-(4-fluoro-1-methyl-1H-indazol-5-yl)-2-oxo-2,3-dihydro-1H-imidazol-1-yl)-2-(4-fluoro-3,5-dimethylphenyl)-4,5,6,7,8,9-hexahydro-2H-4,8-epiminocycloocta [c]pyrazole-10-carbonyl)-1H-indol-1-yl)-2-methylcyclopropyl)-1,2,4-oxadiazol-5 (4H)-one] | little or no potency
